Reference: patent US11021444B2, “Antiviral compounds” (priority 2013, dated 2021)
Where two headings read alike, the source gives them in different places.

Columns and labels:
[1] = Cytotoxicity Determination (CCK-8, without addition of virus); format: cell-based; conditions: human, 50% cytotoxicity concentration (CC50)
Summary of the method: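 HEp-2 cells were seeded at 1,500 cells/well one day before compound addition. Compounds were tested without virus in duplicate over 7 points from 100 μM in 1/2 steps, with 1% final DMSO, 5 days at 37 °C, 5% CO2. Viability was read by CCK-8 after 3-4 hours.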

recombinant RSV complex = recombinant RSV complex (Human respiratory syncytial virus A, UniProt P28887); test: RSV Polymerase Inhibition Assay; format: biochemical
Summary of the method: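 10 nM recombinant RSV polymerase complex in Tris-HCl pH 7.5, 6 mM MgCl2 with RNA oligonucleotide template and radionucleotides, incubated 2 h at 30 °C with increasing inhibitor concentrations. Reaction stopped with EDTA; radiolabeled RNA product counted by scintillation.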

[2] = tested on: Respiratory Syncytial Virus (RSV) long strain; test: microbe, parasite or virus in culture; format: cell-based; conditions: human respiratory syncytial virus, Tables A and B list compounds by EC50 band
Summary of the method: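 HEp-2 cells infected with 100 TCID50 virus per well, compounds in duplicate, 9-point 1/3 dilutions from 100 μM or 1 μM, 1% DMSO. After 5 days at 37 °C, cell viability (CPE protection) read by CCK-8 absorbance at 450 nm, 630 nm background.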

RSV replicon = test: microbe, parasite or virus in culture; format: cell-based; conditions: human respiratory syncytial virus, read-out: EC50, the concentration of the drug required for reducing RSV replicon RNA by 50%
[3] = HEp-2, 120 h, read-out: 50% effective concentration (EC50), HEp-2 cells infected with RSV long strain, 5 days, CCK-8 readout
[4] = 120 h, read-out: 50% effective concentration (EC50), HEp-2 cells infected with RSV long strain, 5 days, CCK-8 readout

Chain of recombinant RSV complex (P28887 whole entry): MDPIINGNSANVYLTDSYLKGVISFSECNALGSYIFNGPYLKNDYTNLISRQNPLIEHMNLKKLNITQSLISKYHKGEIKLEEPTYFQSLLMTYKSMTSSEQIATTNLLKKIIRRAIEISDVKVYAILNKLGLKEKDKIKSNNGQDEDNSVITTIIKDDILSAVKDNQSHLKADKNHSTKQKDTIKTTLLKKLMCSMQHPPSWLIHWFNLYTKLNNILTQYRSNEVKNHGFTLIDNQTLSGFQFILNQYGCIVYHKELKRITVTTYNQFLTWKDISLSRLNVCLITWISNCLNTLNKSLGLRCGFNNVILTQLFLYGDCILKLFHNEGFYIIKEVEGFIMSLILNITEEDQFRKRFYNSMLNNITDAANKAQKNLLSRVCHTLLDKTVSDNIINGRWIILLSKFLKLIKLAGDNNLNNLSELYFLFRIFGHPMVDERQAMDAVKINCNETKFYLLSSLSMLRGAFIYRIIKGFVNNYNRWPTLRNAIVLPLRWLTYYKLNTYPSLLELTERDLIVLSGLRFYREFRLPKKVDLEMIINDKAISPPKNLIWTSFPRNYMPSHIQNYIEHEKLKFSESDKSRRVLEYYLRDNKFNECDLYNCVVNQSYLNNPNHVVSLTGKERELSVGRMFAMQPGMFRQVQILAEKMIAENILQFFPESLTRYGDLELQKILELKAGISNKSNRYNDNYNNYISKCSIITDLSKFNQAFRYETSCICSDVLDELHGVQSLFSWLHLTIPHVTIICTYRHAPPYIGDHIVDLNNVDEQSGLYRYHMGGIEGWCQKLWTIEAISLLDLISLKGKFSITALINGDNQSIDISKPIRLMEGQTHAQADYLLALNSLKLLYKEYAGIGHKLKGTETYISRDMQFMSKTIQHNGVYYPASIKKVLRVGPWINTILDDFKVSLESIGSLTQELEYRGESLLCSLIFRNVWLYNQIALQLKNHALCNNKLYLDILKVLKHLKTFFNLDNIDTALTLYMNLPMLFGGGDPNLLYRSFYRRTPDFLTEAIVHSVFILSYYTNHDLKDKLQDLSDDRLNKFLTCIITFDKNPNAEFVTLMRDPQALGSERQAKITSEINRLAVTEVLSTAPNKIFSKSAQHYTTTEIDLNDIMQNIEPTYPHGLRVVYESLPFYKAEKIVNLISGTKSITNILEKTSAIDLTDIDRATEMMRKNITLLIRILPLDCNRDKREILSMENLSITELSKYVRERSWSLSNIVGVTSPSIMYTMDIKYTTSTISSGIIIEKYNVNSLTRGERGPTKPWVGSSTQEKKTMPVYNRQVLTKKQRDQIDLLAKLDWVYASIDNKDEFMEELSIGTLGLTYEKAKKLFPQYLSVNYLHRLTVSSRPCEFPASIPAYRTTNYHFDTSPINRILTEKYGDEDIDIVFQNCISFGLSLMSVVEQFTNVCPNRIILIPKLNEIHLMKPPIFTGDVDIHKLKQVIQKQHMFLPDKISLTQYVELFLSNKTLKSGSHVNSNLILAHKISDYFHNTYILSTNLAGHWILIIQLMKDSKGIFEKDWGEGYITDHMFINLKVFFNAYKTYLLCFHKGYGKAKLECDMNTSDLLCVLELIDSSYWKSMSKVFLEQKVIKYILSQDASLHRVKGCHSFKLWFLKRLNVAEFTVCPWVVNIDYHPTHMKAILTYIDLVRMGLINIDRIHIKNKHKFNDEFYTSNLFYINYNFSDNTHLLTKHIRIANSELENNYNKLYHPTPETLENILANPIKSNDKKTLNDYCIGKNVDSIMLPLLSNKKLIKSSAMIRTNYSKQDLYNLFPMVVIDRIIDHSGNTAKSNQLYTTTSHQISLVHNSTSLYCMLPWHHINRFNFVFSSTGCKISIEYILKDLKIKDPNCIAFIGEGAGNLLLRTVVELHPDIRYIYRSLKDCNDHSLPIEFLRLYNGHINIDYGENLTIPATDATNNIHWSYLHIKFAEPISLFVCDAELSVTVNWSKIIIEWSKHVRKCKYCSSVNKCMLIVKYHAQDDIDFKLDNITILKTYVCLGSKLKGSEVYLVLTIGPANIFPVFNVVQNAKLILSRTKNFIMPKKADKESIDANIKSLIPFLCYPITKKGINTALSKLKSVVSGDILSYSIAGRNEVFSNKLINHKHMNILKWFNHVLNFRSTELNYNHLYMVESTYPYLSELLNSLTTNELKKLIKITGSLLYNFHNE
Chain of recombinant RSV complex (P03421 whole entry, further chain): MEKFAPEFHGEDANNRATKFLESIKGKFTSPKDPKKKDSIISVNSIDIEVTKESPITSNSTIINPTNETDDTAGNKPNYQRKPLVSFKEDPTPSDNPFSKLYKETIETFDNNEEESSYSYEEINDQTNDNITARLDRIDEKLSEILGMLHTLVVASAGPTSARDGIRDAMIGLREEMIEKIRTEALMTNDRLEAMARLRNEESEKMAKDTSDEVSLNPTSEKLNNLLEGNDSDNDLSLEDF

Compound | CC50 at 5 days [1] [nM] | IC50 (recombinant RSV complex) [nM] | EC50 [2, 3] [nM] | EC50 (RSV replicon) [nM] | EC50 [2, 4] [nM]
CCOc1ccc(C(=O)NCC(O)(c2cc3c(c(-c4ccc(F)c(Cl)c4)n2)OCC3(C)N)C(F)(F)F)cc1OC (stereo not shown) [Compound 498] | 10000 to 100000 | < 1000 | < 1000 | < 1000 | 
COc1cc(C(=O)NCC(O)(c2cc(C(C)(C)N)cc(-c3ccnc(Cl)c3)n2)C(F)(F)F)ccc1OC1CC1 (stereo not shown) [Compound 558] | 10000 to 100000 | < 1000 | < 1000 | < 1000 | 
COC(=O)CNC(C)(C)c1cc(-c2ccc(F)c(Cl)c2)nc(C(O)(CNC(=O)c2ccc(OC3CC3)c(OC)c2)C(F)(F)F)c1 (stereo not shown) [Compound 500] | 10000 to 100000 | < 1000 |  | < 1000 | < 1000
COc1cc(C(=O)NC[C@@](O)(c2cc3c(c(-c4ccc(F)cc4)n2)OCC3(N)CO)C(F)(F)F)ccc1OC1CC1 (stereo partly shown) [Compound 653] | > 100000 | < 1000 | < 1000 | < 1000 | 
COc1cc(C(=O)NCC(O)(c2ccc(OC)c(-c3ccc(F)c(Cl)c3)n2)C(F)(F)F)ccc1OCCO (stereo not shown) [Compound 334] | 10000 to 100000 | < 1000 | < 1000 | < 1000 | 
COc1cc(C(=O)NCC(O)(c2cc(C(C)(N)CF)cc(-c3ccc(F)cc3)n2)C(F)(F)F)ccc1OCC(N)=O (stereo not shown) [Compound 615] | > 100000 | < 1000 | < 1000 | < 1000 | 
COc1cc(C(=O)NCC(N)(c2ccc(OC)c(-c3ccc(F)c(Cl)c3)n2)C(F)(F)F)ccc1OC1CC1 (stereo not shown) [Compound 503] | 10000 to 100000 | < 1000 | < 1000 | < 1000 | 
COc1cc(C(=O)NC[C@](O)(c2cc3c(c(-c4ccc(F)cc4)n2)OCC3(C)CN)C(F)(F)F)ccc1OCCO (stereo partly shown) [Compound 633b] | 10000 to 100000 | < 1000 | < 1000 | < 1000 | 
COc1cc(C(=O)NC[C@](O)(c2cc(C(C)(C)N)cc(-c3ccc(F)c(Cl)c3)n2)C(F)(F)F)ccc1OCC(N)=O [Compound 548] | 10000 to 100000 | < 1000 | < 1000 | < 1000 | 
COc1cc(C(=O)NCC(C)(O)c2cc3c(c(-c4c[nH]c5c(F)cccc45)n2)OCC3(C)C)ccc1OCCF (stereo not shown) [Compound 228] | > 100000 | < 1000 | < 1000 | < 1000 | 
COc1cc(C(=O)NCC(O)(c2ccc(OC)c(-c3ccc(F)c(Cl)c3)n2)C2CC2)ccc1OC(C)(F)F (stereo not shown) [Compound 437] | 10000 to 100000 | < 1000 | 1000 to 50000 | < 1000 | 
COc1cc(C(=O)NCC(O)(c2cc3c(c(-c4ccc(F)cc4)n2)OCC3(N)C(C)C)C(F)(F)F)ccc1OC1CC1 (stereo not shown) [Compound 560] | 10000 to 100000 | < 1000 |  | < 1000 | < 1000
COc1cc(C(=O)NCC(O)(c2cc3c(c(-c4ccc(F)c(F)c4)n2)OCC3(C)N)C(F)(F)F)ccc1OCCO (stereo not shown) [Compound 663] | 10000 to 100000 | < 1000 | < 1000 | < 1000 | 
COc1cc(C(=O)NCC(C)(O)c2ccc(OC)c(-c3ccc(F)c(Cl)c3)n2)ccc1OC1CC1 (stereo not shown) [Compound 369] | 10000 to 100000 | < 1000 | < 1000 | < 1000 | 
COc1cc(C(=O)NC[C@](O)(c2cc(C(C)(C)N)cc(-c3ccc(F)cc3)n2)C(F)(F)F)ccc1OCC(N)=O [Compound 562] | > 100000 | < 1000 | < 1000 | < 1000 | 
COc1cc(C(=O)NCC(=O)c2cc3c(c(-c4ccc(F)c(Cl)c4)n2)OCC=C3)ccc1OCCF [Compound 302] | > 100000 | < 1000 | 1000 to 50000 | < 1000 | 
COc1cc(C(=O)NCC(C)(O)c2ccc(OC)c(-c3ccc(F)c(Cl)c3)n2)ccc1OCCO (racemic) [Compound 120] | > 100000 | < 1000 |  | < 1000 | < 1000
COc1cc(C(=O)NCC(O)(c2cc3c(c(-c4ccc(F)c(Cl)c4)n2)OCCC3(C)C)C2CC2)ccc1OCCO (stereo not shown) [Compound 312] | 10000 to 100000 | < 1000 | < 1000 | < 1000 | 
COc1cc(C(=O)NCC(O)(c2cc(C(C)(N)CF)cc(-c3ccc(F)c(Cl)c3)n2)C(F)(F)F)ccc1OC1CC1 (stereo not shown) [Compound 534] | 10000 to 100000 | < 1000 | < 1000 | < 1000 | 
